Laboratory results taken from PMC5742531, “Bio-Catalytic Structural Transformation of Anti-cancer Steroid, Drostanolone Enanthate with Cephalosporium aphidicola and Fusarium lini, and Cytotoxic Potential Evaluation of Its Metabolites against Certain Cancer Cell Lines” (Frontiers in Pharmacology, 2017).
Like-named read-outs stand apart in the source and are kept apart here.

How the values were obtained:
[1] = test system: NCl-H460 (human lung carcinoma ATCC HTB-177); assay: MTT cytotoxicity assay, H460 cell line; format: cell-based; conditions: H460 cells, read-out: H460 cell line (Lung cancer) IC50 ± SD
Procedure: (§1) The cytotoxicity of samples was measured against HeLa (human cervical carcinoma ATCC CCl-2), PC-3 (human prostate cancer ATCC CRL-1435), NCl-H460 (human lung carcinoma ATCC HTB-177), HCT116 (human colon cancer ATCC CCl-247), and 3T3 (control fibroblast normal ATCC CRL-1658) cell lines by using standard MTT assay. Cell lines were grown in DMEM F12 media, supplemented with 10% FBS under a 5% CO2 atmosphere at 37°C in an incubator.
(§2) The colorimetric assay MTT [3-(4, 5-dimethyl thiazol-2yl)-2, 5-diphenyl tetrazolium bromide] was used for the evaluation of cell metabolic activity. In this assay, the yellow MTT is reduced to purple formazon in the mitochondria of the living cells (Gerlier and Thomasset, [1986]). The more the living cells, the more the color and thus more absorbance is observed by colorimeter (Fesahat et al., [2015]). We have used this method to analyze the effect of our transformed products on cellular cytotoxicity against cancer cells. Around 10,000 cells of each cell line (HeLa, PC3, H460, HCT116 cancers, and 3T3 normal) were seeded in 96-well plates. After reaching 80–90% confluency, they were treated with various concentrations of compounds (25, 50, 75, 100, and 200 μM) for 24 h. All compounds were dissolved in sterile DMSO to make a 200 mM stock solution. The solution was filtered, and serial dilutions were made in growth medium. 600 μL of each dilution was used to treat 3 wells (triplicate of each) of 96 well plate i.e., 200 μL each. Each experiment was performed in three biological replicates. MTT was added, and incubated for 4 h. […] The Multiskan reader gives λmax at 540 nm in DMSO treated 3T3 fibroblast cells (that are more confluent in morphology) whereas in case of cancer cells, 570 nm gives λmax (Bonmati-Carrion et al., [2013]; Danihelová et al., [2013]). A broad range of epithelial carcinoma cell lines were used in this experiment where cisplatin was a common drug of choice. It targets DNA, interferes with cell division during mitosis and induces apoptosis (Eastman, [1999]). IC50 values were calculated to determine the minimum concentration required to kill 50% of the cells.
(§3) % Inhibition=100-(At-Ab)/(Ac-Ab) ×100% Cell survival=(At-Ab)/(Ac-Ab) ×100

[2] = test system: HeLa (human cervical carcinoma ATCC CCl-2); assay: MTT cytotoxicity assay, HeLa cell line; format: cell-based; conditions: 24 h treatment, HeLa cells, read-out: HeLa cell line (Cervical cancer) IC50 ± SD
Procedure: as §1, §2, §3

[3] = test system: 3T3 (control fibroblast normal ATCC CRL-1658); assay: MTT cytotoxicity assay, 3T3 normal cell line; format: cell-based; conditions: 3T3 normal cells, read-out: 3T3 cell line (Mouse fibroblast) IC50 ± SD
Procedure: as §1, §2, §3

[4] = test system: PC-3 (human prostate cancer ATCC CRL-1435); assay: MTT cytotoxicity assay, PC-3 cell line; format: cell-based; conditions: 24 h treatment, PC3 cells, read-out: PC3 cell line (Prostate cancer) IC50 ± SD
Procedure: as §1, §2, §3

[5] = test system: HCT116 (human colon cancer ATCC CCl-247); assay: MTT cytotoxicity assay, HCT116 cell line; format: cell-based; conditions: HCT116 cells, read-out: HCT116 cell line (Colon cancer) IC50 ± SD
Procedure: as §1, §2, §3

[6] = Homo sapiens, NCI-H460, 24 h treatment
[7] = Mus musculus, NIH3T3, 24 h treatment
[8] = Homo sapiens, HCT-116, 24 h treatment

Row | Structure (SMILES) | IC50 [1, 6] [µM] | IC50 ([2]; Homo sapiens) [µM] | IC50 [3, 7] [µM] | IC50 ([4]; Homo sapiens, PC-3, 24 h) [µM] | IC50 [5, 8] [µM] | melting point [°C] | IC50 [4] [µM] | IC50 ([1]; 24 h treatment) [µM] | IC50 [2] [µM] | IC50 ([3]; 24 h treatment) [µM] | IC50 ([5]; 24 h treatment) [µM]
1 | CCCCCCC(=O)OC1CCC2C3CCC4CC(=O)C(C)CC4(C)C3CCC12C (centres unmarked) [Compound 1, drostanolone enanthate] | 5 ± 1.2 | 54.7 ± 1.6 | > 150 | 96.2 ± 3 | 3.1 ± 3.2 |  |  |  |  |  | 
2 | C[C@@H]1C[C@@]2(C)[C@@H](CC[C@@H]3[C@@H]2CC[C@]2(C)[C@@H](O)CC[C@@]32O)C[C@@H]1O [Compound 2, 2α-methyl-3α,14α,17β-trihydroxy-5α-androstane] | 44.4 ± 2 | 64.3 ± 3 | > 150 | 84.6 ± 6.4 | 39.4 ± 2 |  |  |  |  |  | 
3 | C[C@@H]1C[C@@]2(C)[C@H](CC1=O)C[C@@H](O)[C@@H]1[C@@H]2CC[C@]2(C)C(=O)CC[C@@H]12 [Compound 3, 2α-methyl-7α-hydroxy-5α-androstan-3,17-dione] | 16.7 ± 2.6 | 58 ± 1 | > 150 | 68 ± 1.2 | 42.8 ± 1.2 | 230 to 234 | 68.1 ± 1.2 |  |  |  | 
4 | C[C@@H]1C[C@@]2(C)[C@@H](CC[C@@H]3[C@@H]2CC[C@]2(C)[C@@H](O)CC[C@@H]32)C[C@@H]1O [Compound 4, 2α-methyl-3α,17β-dihydroxy-5α-androstane] | 12.4 ± 2.3 | 49.5 ± 2.2 | > 150 | 60.4 ± 0.9 | 80.9 ± 1.6 | 242 to 245 |  |  |  |  | 
5 | CC1=C[C@@]2(C)C(=CC1=O)CC[C@@H]1[C@@H]2CC[C@]2(C)C(=O)CC[C@@H]12 [Compound 5, 2-methylandrosta-1,4-diene-3,17-dione] |  | 39.8 ± 1.5 | > 150 | 84 ± 3.1 | 30.4 ± 1.6 | 198 to 202 |  |  |  |  | 
6 | CC1=C[C@@]2(C)C(=CC1=O)CC[C@@H]1[C@@H]2[C@H](O)C[C@]2(C)C(=O)CC[C@@H]12 [Compound 6, 2-methylandrosta-11α-hydroxy-1,4-diene-3,17-dione] | 33.2 ± 1 | 40.7 ± 0.9 | > 150 | 58.4 ± 1.6 | 45.9 ± 4.2 | 230 to 234 |  |  |  |  | 
7 | CC1=C[C@@]2(C)C(=CC1=O)CC[C@@H]1[C@@H]2CC[C@]2(C)C(=O)CC[C@@]12O [Compound 7, 2-methylandrosta-14α-hydroxy-1,4-diene-3,17-dione] | 38.5 ± 2.8 | 43.9 ± 2.4 | > 150 | 59.1 ± 2.6 | 46.6 ± 3 | 224 to 228 |  |  |  |  | 
8 | CC1=C[C@@]2(C)[C@H](CC1=O)C[C@@H](O)[C@@H]1[C@@H]2CC[C@]2(C)C(=O)CC[C@@H]12 [Compound 8, 2-methylandrosta-7α-hydroxy-1-ene-3,17-dione] | 26.4 ± 0.9 | 19.6 ± 1.4 | 74.6 ± 3.7 | 51.8 ± 3.4 | 55 ± 1.9 | 250 to 256 |  |  |  |  | 
9 | C[C@@H]1C[C@@]2(C)[C@@H](CC[C@@H]3[C@@H]2CC[C@]2(C)[C@@H](O)CC[C@@H]32)CC1=O [Compound 9, 2α -methyl-5α-androstane-17β-hydroxy-3-one] | 31.8 ± 1.2 | 25.1 ± 1.6 | 62.1 ± 1.2 | 57.8 ± 3.2 | 2.8 ± 0.2 |  |  |  |  |  | 
10 | N.N.[Cl][Pt][Cl] [cisplatin, reference compound] |  |  |  |  |  |  | 76.5 ± 1.2 | 22.2 ± 2.1 | 40.1 ± 2 | 42.7 ± 0.8 | 11.2 ± 3.03
